The text below walks through data of US9676774B2, “Compounds and compositions for treatment of cancer” (Sunesis Pharmaceuticals, Inc., priority 2006, dated 2017).

pIC50: −log10 of the molar value.

One series relates to HCT-116 cells. In words: MTT cell viability (cytotoxicity) assay in HCT-116 cells. The format is cell-based. The following applies: Homo sapiens, 72 hours incubation, highest concentration 5 μM, read-out: IC50 (reduced cell viability). Here is the method:
MTT Dye Solution: 5 mg/mL MTT dye (Sigma #M2128) in sterile PBS, filter sterilized, stored at 4° C. in a dark bottle no longer than 1 month.
Lysis Buffer: 50% N,N-dimethyl formamide (Aldich #31,993-7) in dH20, 20% w/v lauryl sulfate (added with stirring at 37° C.) (Sigma #L4509), adjusted pH to 4.7 with 2.5% of 80% acetic acid (Fisher #A490-212) and 2.5% 1 N HCl (Spectrum #HY105).
Supplemented RPMI media: 500 mL RPMI (Cellgro #10-040-CV), 10% FBS (Cellgro #35-011CV) and 1% Sodium Bicarbonate solution (Cellgro @35-035-CI), 1% Antibotic Solution (100× stock; Cellgro #30-004CI).
HCT-116 cells were purchased from ATTC (#CCL-247).
Background: No cells, Totals: Cells treated with DMSO only
96-well tissue culture-treated flat bottom plates (Costar #3595) were plated with 4000 trypsinized cells in 100 μL/well and incubated overnight. 100× stock concentrations of compounds were prepared in DMSO and serially diluted two-fold in DMSO in a 96-well polypropylene v-bottom plate (Costar #3363). 5 μL of DMSO dilutions were then added to 45 μL supplemented RPMI, and 10 μL/well of this mixture were added to plates containing HCT-116 cells. The highest concentration of compounds was 5 μM. Plates were incubated for 72 hours at 37° C. in an incubator (5% CO2).
After incubation, 20 μL of MTT solution were added to each well and incubated at 37° C. for 1.5 hour. 100 μL lysis buffer was then added and plates were incubated for 48 hours at 37° C. Cell viability was then recorded by absorbance at 595 nm using a Biorad Benchmark Microplate Reader. The fraction of dead cells was determined by Fraction of Dead cells=Absorbance of sample well−Avg(no cell control)/Avg(Absorbance of DMSO only Control)−Avg(no cell control).

A short description of series [1]: In vitro reaction of SNS-595 with pooled human liver microsomes (product identification). The format is in vitro ADME. Conditions: for product formed from SNS-595 in liver microsomes: human liver microsomes 1 mg/mL, 10 or 100 μM SNS-595, 60 min, 37° C., NADPH. On the procedure:
The in vitro production of N-Desmethyl SNS-595 from SNS-595 was monitored as described herein. The pooled Human Liver Microsomes were obtained from BD Gentest and NADPH was obtained from Sigma.
The in vitro reactions were performed (a) in the presence of NADPH as a cofactor and (b) in the absence of NADPH to identify any SNS-595 derivatives generated by cofactor independent mechanisms.
The reaction mixture constituted 100 mM Sodium Phosphate buffer, pH 7.4, containing 3.3 mM MgCl2, 1 mg/mL liver microsomal protein, 10 or 100 μM SNS-595, and 1 mM NADPH for reaction with NADPH. In both the NADPH plus and minus reactions, SNS-595 was added to the reaction mixture and allowed to equilibrate to 37° C. for 10 minutes before starting the reaction by adding NADPH or an equivalent volume of buffer. Reactions were performed in a volume of 1 mL in 2 mL 96-well polypropylene assay blocks. The reaction was stopped by adding an equal volume of acetonitrile at both 0 and 60 minutes after initiating the reaction. Samples were placed on ice until centrifugation at 4100 g for 10 minutes to remove proteins for subsequent analysis.
SNS-595 and the reaction products were identified on an API 4000 mass spectrometer coupled to a turbo electro spray ionization source. Prior to MS analysis chromatography was performed to achieve separation of the reaction precuts (N-desmethyl-SNS-595 had the […] SNS-595). The HPLC system consisted of an Agilent 1100 binary pump and single wavelength UV/Vis as a detector, and a Phenomenex Synergi Hydro-RP column (150×2 mm, 4 micron, 80 Å particle size). Following column separation, UV spectra were collected at 350 nm before mass spectral analysis. Mass spectral identification of the reaction products was done using a series of three experiments; MS full scan, product ion scans on all reaction products identified in the MS full scan analysis as well as multiple reaction monitoring (MRM) or product ion scans on theoretically possible reaction products. […]

With `CO[C@H]1CN(c2ccc3c(=O)c(C(=O)O)cn(-c4nccs4)c3n2)C[C@@H]1N` [N-desmethyl-SNS-595, (+)-1,4-dihydro-7-[(3S,4S)-3-methoxy-4-amino-1-pyrrolidinyl]-4-oxo-1-(2-thiazolyl)-1,8-naphthyridine-3-carboxylic acid], the pIC50 in the series on HCT-116 cells is 6.29. Further, the “product formed from SNS-595 in liver microsomes” value in series [1] is on record as “predominant product formed”. Further, the “product detectable after incubation of SNS-595 in liver microsomes” value in series [1] (human liver microsomes, 10 μM incubation concentration of SNS-595) is given as “only product detectable”.
For the molecule `CN[C@H]1CN(c2ccc3c(=O)c(C(=O)O)cn(-c4nccs4)c3n2)C[C@@H]1O` [O-desmethyl-SNS-595, (+)-1,4-dihydro-7-[(3S,4S)-3-hydroxy-4-methylamino-1-pyrrolidinyl]-4-oxo-1-(2-thiazolyl)-1,8-naphthyridine-3-carboxylic acid], the pIC50 in the series with HCT-116 cells is < 5.30. For the same molecule, the “product formed from SNS-595 in liver microsomes” value in series [1] is given as “second product formed”.
As for `CN[C@H]1CN(c2ccc3c(=O)c(C(=O)O)cn(-c4nccs4)c3n2)C[C@@H]1OC` [SNS-595, (+)-1,4-dihydro-7-[(3S,4S)-3-methoxy-4-(methylamino)-1-pyrrolidinyl]-4-oxo-1-(2-thiazolyl)-1,8-naphthyridine-3-carboxylic acid], the pIC50 with HCT-116 cells was 6.37.
